Test results: the NIST ThermoML archive (doi:10.1021/je060271a)

Conditions: 323.16 K, Liquid, Vibrating tube method

CCCCCC(=O)OCC(COC(=O)CCCCC)(COC(=O)CCCCC)COC(=O)CCCCC [pentaerythritol tetrahexanoate]
Conditions	mass density [kg/m3]
24638 kPa	989
24665 kPa	988.9
24693 kPa	988.9
24716 kPa	988.9
24744 kPa	989
24772 kPa	989
24795 kPa	988.9
24822 kPa	989
24849 kPa	989
24876 kPa	989.1
24905 kPa	989
24928 kPa	989.2
24956 kPa	989.1
24984 kPa	989.2
25012 kPa	989.1
25040 kPa	989.2
25063 kPa	989.1
25092 kPa	989.2
25120 kPa	989.4
25148 kPa	989.3
25172 kPa	989.1
25200 kPa	989.2
25228 kPa	989.4
25257 kPa	989.3
25286 kPa	989.2
25314 kPa	989.3
25339 kPa	989.4
25368 kPa	989.4
25397 kPa	989.3
25422 kPa	989.4
25450 kPa	989.4
25480 kPa	989.3
25509 kPa	989.4
26056 kPa	989.7
26083 kPa	989.7
26111 kPa	989.8
26138 kPa	989.8
26161 kPa	989.8
26189 kPa	989.8
26217 kPa	989.8
26244 kPa	989.9
26266 kPa	989.9
26294 kPa	989.9
26321 kPa	989.9
26349 kPa	989.9
26377 kPa	989.9
26405 kPa	990
26428 kPa	990
26456 kPa	990
26485 kPa	990
26516 kPa	990
26539 kPa	990.1
26567 kPa	990.1
26596 kPa	990.2
26620 kPa	990.1
26648 kPa	990.1
26677 kPa	990.1
26706 kPa	990.2
26734 kPa	990.2
27187 kPa	990.3
27218 kPa	990.5
27243 kPa	990.5
27273 kPa	990.4
27304 kPa	990.6
27334 kPa	990.6
27359 kPa	990.6
27390 kPa	990.6
27420 kPa	990.5
27451 kPa	990.6
27481 kPa	990.7
27507 kPa	990.6
27538 kPa	990.7
27569 kPa	990.7
27601 kPa	990.7
27627 kPa	990.7
27659 kPa	990.8
27690 kPa	990.8
27722 kPa	990.8
27748 kPa	990.8
27781 kPa	990.7
27814 kPa	990.9
27846 kPa	990.8
27871 kPa	990.8
27898 kPa	991
27926 kPa	990.9
27954 kPa	990.9
27978 kPa	991
28006 kPa	990.8
28034 kPa	990.9
28308 kPa	991.1
28332 kPa	991.2
28361 kPa	991.2
28389 kPa	991.2
28418 kPa	991.2
28471 kPa	991.3
28499 kPa	991.1
28529 kPa	991.2
28553 kPa	991.1
28582 kPa	991.2
28611 kPa	991.3
28640 kPa	991.4
29189 kPa	991.7
29221 kPa	991.7
29253 kPa	991.7
29279 kPa	991.7
29311 kPa	991.8
29343 kPa	991.8
29373 kPa	991.8
29395 kPa	991.8
29423 kPa	991.8
29446 kPa	991.7
29473 kPa	991.8
29500 kPa	991.8
29527 kPa	991.9
29603 kPa	991.9
29630 kPa	991.8
29657 kPa	992.1
29680 kPa	992
29707 kPa	992
29734 kPa	992
29999 kPa	992.1
30027 kPa	992.1
30055 kPa	992.3
30079 kPa	992.1
30107 kPa	992.1
30135 kPa	992.2
30159 kPa	992.4
30188 kPa	992.3
30217 kPa	992.3
30245 kPa	992.2
30273 kPa	992.4
30301 kPa	992.4
30326 kPa	992.2
30354 kPa	992.4
30383 kPa	992.3
30407 kPa	992.4
30436 kPa	992.4
30579 kPa	992.4
30610 kPa	992.4
30641 kPa	992.5
30672 kPa	992.6
30697 kPa	992.5
30725 kPa	992.6
30749 kPa	992.7
30774 kPa	992.6
